Data from PubChem BioAssay (NCI).
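Values below derive from 48-hour exposures of cells grown in 96-well plates, with endpoints linearly interpolated between the two concentrations bracketing the appropriate inhibition level. TGI marks complete inhibition of growth.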

What was measured:
Experiment in all cases: NCI tumour cell line growth inhibition, 48 h
[1] = tested on: NCI-H226 lung
[2] = tested on: KM20L2 colon
[3] = tested on: DLD-1 colon
[4] = tested on: LXFL 529 NSCLC
[5] = tested on: HCC-2998 colon
[6] = tested on: RXF-631 renal
[7] = tested on: DMS 273 small cell lung
[8] = tested on: M19-MEL melanoma
[9] = tested on: DMS 114 small cell lung
[10] = tested on: SR leukemia
[11] = tested on: HOP-18 NSCLC
[12] = tested on: SNB-78 CNS
[13] = tested on: XF 498 CNS
[14] = tested on: SN12K1 renal
[15] = tested on: P388 leukemia
[16] = tested on: P388/ADR leukemia
[17] = tested on: HS 578T breast
[18] = tested on: MDA-MB-231 breast

In the case of `CSc1sc2ccccc2[s+]1`, the TGI [1] is reported as over 100 µM, the TGI [2] is reported as over 100 µM and the TGI [3] is reported as over 100 µM. The TGI [4] was over 100 µM, the TGI [5] was over 100 µM and the TGI [6] was over 100 µM. For the same compound, the TGI [7] was over 100 µM, the TGI [8] was over 100 µM and the TGI [9] was over 100 µM. For the same compound, the TGI [10] was over 100 µM and the TGI [11] was over 100 µM.
In the case of `O=C(N/N=C/c1cc(Br)cc(Br)c1[O-])c1ccccc1O.O=C(N/N=C/c1cc(Br)cc(Br)c1[O-])c1ccccc1O.[Cu+2]`, the TGI [1] is reported as 1.98 µM, the TGI [2] is reported as 2.09 µM and the TGI [5] is reported as 1.48 µM. It also gave a TGI [10] of 1.17 µM.
For `COc1cc2c3c(c1OC)C1(C=CC(=O)C=C1)C[C@H]3N(C)CC2`, the TGI [12] was over 100 µM, the TGI [1] was over 100 µM and the TGI [2] was over 100 µM. It also gave a TGI [3] of over 100 µM, a TGI [4] of over 100 µM and a TGI [5] of over 100 µM. The TGI [6] was over 100 µM, the TGI [7] was over 100 µM and the TGI [13] was over 100 µM. The TGI [8] was over 100 µM, the TGI [9] was over 100 µM and the TGI [10] was over 100 µM. For the same compound, the TGI [11] was over 100 µM.
Compound `O=c1c(C(c2ccc(Cl)cc2)c2c(O)c3ccccc3n(-c3ccccc3)c2=O)c(O)c2ccccc2n1-c1ccccc1` has a TGI [12] of over 100 µM, a TGI [1] of over 100 µM and a TGI [2] of over 100 µM. The TGI [3] was over 100 µM, the TGI [4] was over 100 µM and the TGI [5] was over 100 µM. For the same compound, the TGI [6] was over 100 µM, the TGI [7] was over 100 µM and the TGI [13] was 69.4 µM. For the same compound, the TGI [8] was over 100 µM, the TGI [9] was over 100 µM and the TGI [10] was over 100 µM. For the same compound, the TGI [11] was over 100 µM.
Compound `O=NN(CCCl)C(=O)NC1CCC(O)CC1` (stereo not drawn) has a TGI [12] of 63.3 µM, a TGI [1] of over 100 µM and a TGI [2] of over 100 µM. For the same compound, the TGI [14] was over 100 µM, the TGI [15] was 20.5 µM and the TGI [3] was over 77 µM. The TGI [5] was over 100 µM, the TGI [7] was over 100 µM and the TGI [13] was 60.3 µM. For the same compound, the TGI [8] was over 91 µM, the TGI [9] was 51.5 µM and the TGI [16] was 18 µM. It also gave a TGI [11] of over 90.9 µM.
In the case of `CC(=O)[C@@]1(O)CC[C@H]2[C@@H]3C[C@H](C)C4=CC(=O)C=C[C@]4(C)[C@@]3(F)[C@@H](O)C[C@@]21C`, the TGI [12] is reported as over 100 µM, the TGI [1] is reported as over 100 µM and the TGI [17] is reported as over 100 µM. It also gave a TGI [2] of over 100 µM, a TGI [3] of over 100 µM and a TGI [4] of over 100 µM. For the same compound, the TGI [5] was over 100 µM, the TGI [6] was over 100 µM and the TGI [7] was over 100 µM. It also gave a TGI [13] of over 100 µM, a TGI [8] of over 100 µM and a TGI [9] of over 100 µM. The TGI [18] was over 100 µM and the TGI [10] was over 100 µM.
